Measured values: ChEMBL document CHEMBL4311982, “Discovery of novel, potent, isosteviol-based antithrombotic agents” (Eur J Med Chem, 2019)

How the values were obtained:
[1] = Clearance in Wistar rat at 6.6 umol/kg, iv measured upto 24 hrs by LC-MS/MS analysis; type: ADME, organism-based; settings: in vivo
[2] = Volume of distribution in Wistar rat at 22 umol/kg, po measured upto 24 hrs by LC-MS/MS analysis; type: ADME, organism-based; settings: in vivo
[3] = Oral bioavailability in Wistar rat at 22 umol/kg measured upto 24 hrs by LC-MS/MS analysis; type: ADME, organism-based; settings: in vivo
Coagulation factor VII = target: T1, Coagulation factor VII (Homo sapiens, UniProt P08709); assay: Inhibition of human activated Factor VII using S-2288 as substrate incubated for 15 mins followed by substrate addition and measured after 1 hr by chromogenic assay
T1 sequence (P08709 whole entry): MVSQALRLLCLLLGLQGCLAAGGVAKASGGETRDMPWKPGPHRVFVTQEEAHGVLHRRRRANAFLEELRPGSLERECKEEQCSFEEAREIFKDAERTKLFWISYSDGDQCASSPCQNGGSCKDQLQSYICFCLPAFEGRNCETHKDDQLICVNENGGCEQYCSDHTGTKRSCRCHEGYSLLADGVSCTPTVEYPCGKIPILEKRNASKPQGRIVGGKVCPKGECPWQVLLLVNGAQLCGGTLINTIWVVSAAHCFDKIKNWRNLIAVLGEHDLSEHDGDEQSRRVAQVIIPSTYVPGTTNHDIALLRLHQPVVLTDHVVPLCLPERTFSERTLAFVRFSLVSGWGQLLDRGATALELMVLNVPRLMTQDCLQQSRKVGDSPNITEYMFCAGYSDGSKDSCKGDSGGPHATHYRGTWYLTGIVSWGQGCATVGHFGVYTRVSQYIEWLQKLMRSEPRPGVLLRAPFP

[4] = target: Tissue-type plasminogen activator (Homo sapiens, UniProt P00750); assay: Inhibition of human tPA using […] tPA substrate incubated for 15 mins followed by substrate addition and measured after 1 hr by chromogenic assay
Coagulation factor X = Coagulation factor X (Homo sapiens, UniProt P00742); assay: Inhibition of human activated Factor X using S-2765 as substrate incubated for 15 mins followed by substrate addition and measured after 1 hr by chromogenic assay
Coagulation factor XII = target: T2, Coagulation factor XII (Homo sapiens, UniProt P00748); assay: Inhibition of human activated Factor XII using spectrozyme F XIIa as substrate incubated for 15 mins followed by substrate addition and measured after 1 hr by chromogenic assay
T2 sequence (P00748 whole entry): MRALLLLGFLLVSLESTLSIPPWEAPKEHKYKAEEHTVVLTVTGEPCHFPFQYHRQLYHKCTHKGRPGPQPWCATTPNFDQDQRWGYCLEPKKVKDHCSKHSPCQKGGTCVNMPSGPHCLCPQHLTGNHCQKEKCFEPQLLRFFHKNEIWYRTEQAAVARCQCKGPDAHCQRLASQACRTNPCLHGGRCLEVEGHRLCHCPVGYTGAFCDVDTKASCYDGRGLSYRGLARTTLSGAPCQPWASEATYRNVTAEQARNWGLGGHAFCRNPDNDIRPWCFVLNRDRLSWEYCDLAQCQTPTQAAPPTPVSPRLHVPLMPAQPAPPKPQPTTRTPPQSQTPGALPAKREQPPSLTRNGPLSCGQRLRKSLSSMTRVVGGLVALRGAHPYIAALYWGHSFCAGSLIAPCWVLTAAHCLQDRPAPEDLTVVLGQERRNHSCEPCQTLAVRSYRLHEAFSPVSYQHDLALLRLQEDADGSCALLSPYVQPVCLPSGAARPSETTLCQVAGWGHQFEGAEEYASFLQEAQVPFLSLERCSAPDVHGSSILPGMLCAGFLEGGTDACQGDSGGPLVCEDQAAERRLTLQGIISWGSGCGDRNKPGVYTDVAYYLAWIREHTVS

[5] = Clearance in Wistar rat at 22 umol/kg, po measured upto 24 hrs by LC-MS/MS analysis; type: ADME, organism-based; settings: in vivo
Coagulation factor XI = Coagulation factor XI (Homo sapiens, UniProt P03951); assay: Inhibition of human activated Factor XI using S-2366 as substrate incubated for 15 mins followed by substrate addition and measured after 1 hr by chromogenic assay
[6] = MRT in Wistar rat at 22 umol/kg, po measured upto 24 hrs by LC-MS/MS analysis; type: ADME, organism-based; settings: in vivo
[7] = Half life in Wistar rat at 22 umol/kg, po measured upto 24 hrs by LC-MS/MS analysis; type: ADME, organism-based; settings: in vivo
Trypsin = Trypsin (Homo sapiens, UniProt P07477+P07478+P35030); assay: Inhibition of human trypsin using S-2222 as substrate incubated for 15 mins followed by substrate addition and measured after 1 hr by chromogenic assay; type: protein assay
Rattus norvegicus [8] = organism: Rattus norvegicus; note: test concentration or dose not given here
[9] = AUC (0 to infinity) in Wistar rat at 22 umol/kg, po measured upto 24 hrs by LC-MS/MS analysis; type: ADME, organism-based; parameters: dose 22 umol/kg, time infinity, route oral; settings: in vivo
[10] = Cmax in Wistar rat at 22 umol/kg, po measured upto 24 hrs by LC-MS/MS analysis; type: ADME, organism-based; parameters: dose 22 umol/kg, route oral; settings: in vivo
[11] = target: Chymotrypsin (Rattus norvegicus); assay: Inhibition of rat chymotrypsin using S-2586 as substrate incubated for 15 mins followed by substrate addition and measured after 1 hr by chromogenic assay
[12] = target: Urokinase-type plasminogen activator (Homo sapiens, UniProt P00749); assay: Inhibition of human uPA using […] uPA substrate incubated for 15 mins followed by substrate addition and measured after 1 hr by chromogenic assay
[13] = MRT in Wistar rat at 6.6 umol/kg, iv measured upto 24 hrs by LC-MS/MS analysis; type: ADME, organism-based; settings: in vivo
Rattus norvegicus [14] = organism: Rattus norvegicus; remark: listed apart in the source; note: test concentration or dose not given here
Coagulation factor IX = Coagulation factor IX (Homo sapiens, UniProt P00740); assay: Inhibition of human activated Factor IX using spectrozyme F IXa as substrate incubated for 15 mins followed by substrate addition and measured after 1 hr by chromogenic assay
[15] = Volume of distribution in Wistar rat at 6.6 umol/kg, iv measured upto 24 hrs by LC-MS/MS analysis; type: ADME, organism-based; settings: in vivo
[16] = Half life in Wistar rat at 6.6 umol/kg, iv measured upto 24 hrs by LC-MS/MS analysis; type: ADME, organism-based; settings: in vivo
Rattus norvegicus [17] = organism: Rattus norvegicus; remark: listed apart in the source; note: test concentration or dose not given here
Plasma kallikrein = Plasma kallikrein (Homo sapiens, UniProt P03952); assay: Inhibition of human kallikrein using S-2302 as substrate incubated for 15 mins followed by substrate addition and measured after 1 hr by chromogenic assay
[18] = AUC (0 to infinity) in Wistar rat at 6.6 umol/kg, iv measured upto 24 hrs by LC-MS/MS analysis; type: ADME, organism-based; parameters: dose 6.6 umol/kg, time infinity, route intravenous; settings: in vivo

Chain of Tissue-type plasminogen activator (P00750 whole entry): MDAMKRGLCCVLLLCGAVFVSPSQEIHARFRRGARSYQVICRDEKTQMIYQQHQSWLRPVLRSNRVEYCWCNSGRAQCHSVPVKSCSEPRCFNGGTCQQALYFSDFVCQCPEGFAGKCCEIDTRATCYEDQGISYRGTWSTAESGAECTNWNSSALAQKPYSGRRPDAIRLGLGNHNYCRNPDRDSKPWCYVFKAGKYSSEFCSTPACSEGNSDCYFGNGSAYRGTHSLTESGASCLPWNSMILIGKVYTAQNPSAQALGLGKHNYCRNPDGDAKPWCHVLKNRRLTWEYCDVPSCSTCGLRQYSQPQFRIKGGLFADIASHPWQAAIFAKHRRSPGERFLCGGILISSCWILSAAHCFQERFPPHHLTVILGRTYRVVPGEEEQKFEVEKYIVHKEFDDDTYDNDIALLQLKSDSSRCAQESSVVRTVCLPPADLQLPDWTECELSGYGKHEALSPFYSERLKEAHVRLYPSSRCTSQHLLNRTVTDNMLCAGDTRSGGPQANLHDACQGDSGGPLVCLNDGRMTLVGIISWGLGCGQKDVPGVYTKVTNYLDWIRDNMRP
Chain of Plasma kallikrein (P03952 20-390 limits assumed): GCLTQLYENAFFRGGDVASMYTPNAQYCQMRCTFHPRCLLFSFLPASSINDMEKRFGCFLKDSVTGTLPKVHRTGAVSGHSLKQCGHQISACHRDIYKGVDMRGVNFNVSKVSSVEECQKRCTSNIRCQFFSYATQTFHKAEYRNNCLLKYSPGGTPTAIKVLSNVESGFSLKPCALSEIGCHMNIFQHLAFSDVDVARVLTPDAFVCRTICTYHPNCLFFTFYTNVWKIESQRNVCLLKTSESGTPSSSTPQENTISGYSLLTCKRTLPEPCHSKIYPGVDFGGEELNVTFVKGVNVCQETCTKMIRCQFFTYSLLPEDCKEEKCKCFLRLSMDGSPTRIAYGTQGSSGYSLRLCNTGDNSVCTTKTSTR
Chain of Plasma kallikrein (P03952 391-638 limits assumed): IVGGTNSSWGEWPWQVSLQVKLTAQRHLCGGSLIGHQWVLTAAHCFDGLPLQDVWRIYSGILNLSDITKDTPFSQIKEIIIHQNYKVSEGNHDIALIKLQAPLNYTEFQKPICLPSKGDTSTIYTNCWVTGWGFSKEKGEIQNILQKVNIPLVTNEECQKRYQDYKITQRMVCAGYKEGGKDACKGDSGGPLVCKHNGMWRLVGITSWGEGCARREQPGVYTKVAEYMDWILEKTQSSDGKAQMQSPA
Chain of Coagulation factor IX (P00740 47-191 limits assumed): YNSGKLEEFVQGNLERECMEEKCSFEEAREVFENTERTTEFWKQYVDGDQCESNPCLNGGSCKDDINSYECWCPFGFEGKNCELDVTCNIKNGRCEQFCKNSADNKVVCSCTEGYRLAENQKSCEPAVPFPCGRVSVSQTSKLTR
Chain of Coagulation factor IX (P00740 227-461 limits assumed): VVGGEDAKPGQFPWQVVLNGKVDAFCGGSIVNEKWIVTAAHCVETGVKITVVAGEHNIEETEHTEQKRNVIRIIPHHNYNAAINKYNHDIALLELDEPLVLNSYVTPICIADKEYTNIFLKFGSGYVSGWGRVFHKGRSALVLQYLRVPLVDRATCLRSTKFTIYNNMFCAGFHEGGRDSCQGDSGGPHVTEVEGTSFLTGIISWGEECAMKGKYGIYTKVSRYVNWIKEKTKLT
Chain of Coagulation factor X (P00742 41-179 limits assumed): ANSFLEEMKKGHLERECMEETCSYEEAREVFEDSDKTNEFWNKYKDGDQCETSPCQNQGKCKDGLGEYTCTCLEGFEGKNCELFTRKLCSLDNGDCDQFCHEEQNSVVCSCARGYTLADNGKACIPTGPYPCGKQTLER
Chain of Coagulation factor X (P00742 235-488 limits assumed): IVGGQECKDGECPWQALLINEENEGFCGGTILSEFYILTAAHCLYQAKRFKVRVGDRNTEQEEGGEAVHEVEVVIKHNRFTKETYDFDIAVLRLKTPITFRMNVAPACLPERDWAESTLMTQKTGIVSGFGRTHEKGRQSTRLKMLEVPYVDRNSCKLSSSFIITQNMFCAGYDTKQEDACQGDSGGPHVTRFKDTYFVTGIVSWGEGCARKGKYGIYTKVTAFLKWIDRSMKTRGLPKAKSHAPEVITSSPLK
Chain of Coagulation factor XI (P03951 19-387 limits assumed): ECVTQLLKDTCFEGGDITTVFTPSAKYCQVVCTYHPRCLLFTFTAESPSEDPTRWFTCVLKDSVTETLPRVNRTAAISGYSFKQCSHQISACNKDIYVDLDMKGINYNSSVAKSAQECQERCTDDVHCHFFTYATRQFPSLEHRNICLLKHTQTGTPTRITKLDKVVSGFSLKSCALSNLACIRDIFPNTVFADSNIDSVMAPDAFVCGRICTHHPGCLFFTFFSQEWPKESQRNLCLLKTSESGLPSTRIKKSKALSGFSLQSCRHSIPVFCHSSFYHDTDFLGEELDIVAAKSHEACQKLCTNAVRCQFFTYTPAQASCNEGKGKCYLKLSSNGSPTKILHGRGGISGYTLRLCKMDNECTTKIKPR
Chain of Coagulation factor XI (P03951 388-625 limits assumed): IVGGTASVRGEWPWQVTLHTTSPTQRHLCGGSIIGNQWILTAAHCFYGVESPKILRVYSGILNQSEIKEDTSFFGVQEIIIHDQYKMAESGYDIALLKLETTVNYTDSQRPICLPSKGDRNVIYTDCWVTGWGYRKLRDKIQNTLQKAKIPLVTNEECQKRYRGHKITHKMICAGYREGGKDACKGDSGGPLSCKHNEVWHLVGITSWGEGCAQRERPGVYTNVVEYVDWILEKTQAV

CCOC(=O)[C@]1(C)CCC[C@@]2(C)[C@@H]3CC[C@@]4(C)C[C@]3(CC[C@@H]21)C/C4=N\OCc1ccsc1
clearance [1]: 15 mL/min | Vd [2]: 10.2 L | bioavailability [3]: 48.6% | Ki (Coagulation factor VII): 11.6 µM | Ki [4]: 3.53 µM | Ki (Coagulation factor X): 0.015 µM | Ki (Coagulation factor XII): 9.29 µM | CL/F [5]: 30 mL/min | Ki (Coagulation factor XI): 1.7 µM | MRT [6]: 4.1 h | half-life [7]: 3.9 h | Ki (Trypsin): 2.13 µM | APTT (Rattus norvegicus [8]): 21.3 s | AUC(0-inf) [9]: 5.53 µg·h/mL | Cmax [10]: 1.25 µg/mL | Ki [11]: 16.262 µM | Ki [12]: 4.43 µM | MRT [13]: 4.6 h | TT (Rattus norvegicus [14]): 25.5 min | Ki (Coagulation factor IX): 19.7 µM | Vd [15]: 4 L | half-life [16]: 3.2 h | PT (Rattus norvegicus [17]): 19.1 s | Ki (Plasma kallikrein): 2.21 µM | AUC(0-inf) [18]: 3.41 µg·h/mL

CCOC(=O)[C@]1(C)CCC[C@@]2(C)[C@@H]3CC[C@@]4(C)C[C@]3(CC[C@@H]21)C/C4=N\OCC1(C)COC1
clearance [1]: 15 mL/min | Vd [2]: 12.5 L | bioavailability [3]: 42.7% | Ki (Coagulation factor VII): 7.99 µM | Ki [4]: 2.83 µM | Ki (Coagulation factor X): 0.028 µM | Ki (Coagulation factor XII): 7.64 µM | CL/F [5]: 35 mL/min | Ki (Coagulation factor XI): 1.94 µM | MRT [6]: 5.6 h | half-life [7]: 4.2 h | Ki (Trypsin): 0.331 µM | APTT (Rattus norvegicus [8]): 20.6 s | AUC(0-inf) [9]: 4.81 µg·h/mL | Cmax [10]: 0.729 µg/mL | Ki [11]: 12.378 µM | Ki [12]: 2.03 µM | MRT [13]: 4.9 h | TT (Rattus norvegicus [14]): 22 min | Ki (Coagulation factor IX): 4.76 µM | Vd [15]: 4.3 L | half-life [16]: 3.4 h | PT (Rattus norvegicus [17]): 18.2 s | Ki (Plasma kallikrein): 0.277 µM | AUC(0-inf) [18]: 3.38 µg·h/mL
